One compound from ChEMBL document CHEMBL1128774, “Substrate specificity of farnesyl diphosphate synthase from Bacillus stearothermophilus” (Bioorg Med Chem Lett, 1995) can be followed below.

Each structure is given as a SMILES string. Calls of active or inactive are those of the source. The rule behind the calls is not given here.

Assay [1] relates to Farnesyl diphosphate synthase (Sus scrofa). The assay is described as follows: Compound was tested for apparent Km values of Farnesyl diphosphate synthase from Pig liver; Active.
Assay [2] has as its system Farnesyl diphosphate synthase (Geobacillus stearothermophilus). As to the kind of experiment: Compound was tested for apparent Km values of Farnesyl diphosphate synthase from Bacteria; Active.

Consider `C/C(=C\COP(=O)(O)OP(=O)(O)O)CCCO`, for which the outcome in assay [1] and in assay [2] was Active.
